10 molecules from patent US20250388625A1, “CYCLOSPORINE ANALOGUES” (priority 2022, published 2025) can be followed below.

Test [1] concerns the target CypA (Homo sapiens, UniProt P62937). In words: biochemical. It is filed as binding. To be noted: for Max Response / Kd: SPR, Biacore, 25° C. The protocol: CypA binding was carried out using surface plasmon resonance as described (Warne J Biol Chem. 2016 Feb. 26; 291 (9): 4356-73).
Surface Plasmon Resonance (SPR) using Biacore at 25° C. was used to study the binding interactions between CypA and various inhibitors. The SPR binding experiments used a duel flow cell with a blank reference. The sensor chip surface was initially activated with a mixture of N-hydroxysuccinimide (NHS,) and N-(3-dimethyl-aminopropyl)-N′-ethyl-carbodiimide hydrochloride (EDC) for 420 s with a flow rate of 10 μl/min on blank flow cell 1 in addition to flow cell 2.
CypA protein was diluted to a concentration of 50 μg/mL by the addition of 10 mM sodium acetate pH 5 solution before immobilisation and covalent attachment to the carboxy-methylated dextran matrix of the Biacore CM5 sensor chip. CypA was run against the surface for 420 s and then any unreacted surface was quenched by 420 s of ethanolamine.
Immobilisations were carried out in the presence of JW47 (Warne J Biol Chem. 2016 Feb. 26; 291 (9): 4356-73).
No regeneration stage was required if the dissociation time was sufficient.
Solvent correction was carried out in each experiment using 8 different DMSO dilutions as reference: 2.8%, 2.6%, 2.4%, 2.2%, 2%, 1.8%, 1.6% & 1.5%.
A 50/50 mixture of buffer and DMSO is required to include a wash cycle in the experiment.
50 μl of CypA (0.1 mg/ml)+40 μL of 10 mM sodium acetate pH5+10 μl of 600 μM of JW47 DMSO solution. This mixture was allowed to stand at room temperature for 10 mins prior to set-up in the injection rack.

In test [2] the test system is Human stem cells (HSC). It is filed as cell-based.
In test [3] the target is T1, IFITM3 (Homo sapiens, UniProt Q01628). It is filed as cell-based. Also on record: treated with 10 ng/ml type 1 interferon (IFNβ) overnight to induce IFITM3 expression; endogenous in cells; host or cells: THP-1 (human monocytic cell line), IFNβ-treated.
T1 sequence (Q01628 whole entry): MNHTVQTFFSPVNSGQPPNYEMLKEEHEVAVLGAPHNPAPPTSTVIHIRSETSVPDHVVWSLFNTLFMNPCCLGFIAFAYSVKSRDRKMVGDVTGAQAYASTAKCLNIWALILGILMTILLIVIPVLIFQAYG
In test [4] the target is T1, IFITM3. It is filed as cell-based. Also on record: treated with 10 ng/ml type 1 interferon (IFNβ) overnight to induce IFITM3 expression; endogenous in cells; host or cells: THP-1 (human monocytic cell line), IFNβ-treated. The source holds these as a separate data set.
The target of test [5] is cyclophilin A (CypA) (UniProt P62937). In words: SPR (Biacore, 25 C), CypA amine-coupled to CM5 chip, compound as analyte. A general note: In SPR one partner is held on a chip, and binding of the other changes the refractive index at the surface.
cyclophilin A (CypA), sequence (P62937 whole entry): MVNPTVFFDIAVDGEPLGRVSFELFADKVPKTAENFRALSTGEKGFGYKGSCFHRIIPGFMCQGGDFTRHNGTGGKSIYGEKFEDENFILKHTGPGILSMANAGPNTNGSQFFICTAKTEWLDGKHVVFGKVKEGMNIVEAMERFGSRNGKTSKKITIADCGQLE
The target of test [6] is T1, IFITM3. Put plainly: cell-based or functional assay.

Like-named read-outs stand apart in the source and are kept apart here.

CypA, sequence (P62937 whole entry): as above

Take `CCc1cc(C(=O)OCCn2ccnc2)ccc1C=CC[C@@H](C)[C@@H](O)[C@H]1C(=O)N[C@@H](CC)C(=O)N(C)CC(=O)N(C)[C@@H](CC(C)C)C(=O)N[C@@H](C(C)C)C(=O)N(C)[C@@H](CC(C)C)C(=O)N[C@@H](C)C(=O)N[C@H](C)C(=O)N(C)[C@@H](CC(C)C)C(=O)N(C)[C@@H](CC(C)C)C(=O)N(C)[C@@H](C(C)C)C(=O)N1C` [BG149]: the “Max Response” value in test [1] is reported as 4.8 RU.

The term koff denotes the first-order rate constant of dissociation. A higher koff goes with fast dissociation. The term kon denotes the second-order rate constant of association. The low end stands for slower complex formation, the high end for faster complex formation. The term Kd denotes the free concentration of one partner at which half of the binding sites on the other are occupied at equilibrium, for simple one-to-one binding. Turning to `CC[C@@H]1NC(=O)[C@H]([C@H](O)[C@H](C)CC=Cc2ccc(C(=O)OCCn3ccnc3)cc2C)N(C)C(=O)[C@H](C(C)C)N(C)C(=O)[C@H](CC(C)C)N(C)C(=O)[C@H](CC(C)C)N(C)C(=O)[C@@H](C)NC(=O)[C@H](C)NC(=O)[C@H](CC(C)C)N(C)C(=O)[C@H](C(C)C)NC(=O)[C@H](CC(C)C)N(C)C(=O)CN(C)C1=O` [BG150], in test [1], the koff stood at 0.0425 s⁻¹, the kon was determined as 11100 M⁻¹ s⁻¹ and the “Max Response” value turned out to be 18.7 RU. The Kd in test [1] (read-out: Kd (Affinity)) is 1.31 µM. In addition, the Kd in test [1] (read-out: Kd (Kinetics)) was found to be 3.84 µM.

Consider `CC[C@@H]1NC(=O)[C@H]([C@H](O)[C@H](C)CC=Cc2ccc(C(=O)OCCn3ccnc3)cc2OC)N(C)C(=O)[C@H](C(C)C)N(C)C(=O)[C@H](CC(C)C)N(C)C(=O)[C@H](CC(C)C)N(C)C(=O)[C@@H](C)NC(=O)[C@H](C)NC(=O)[C@H](CC(C)C)N(C)C(=O)[C@H](C(C)C)NC(=O)[C@H](CC(C)C)N(C)C(=O)CN(C)C1=O` [BG181], for which, in test [1], the koff was 0.228 s⁻¹, the kon came to 6360 M⁻¹ s⁻¹ and the “Max Response” value amounted to 9.8 RU. The Kd in test [1] (read-out: Kd (Affinity)) worked out at 2.66 µM. Also, in test [1] (read-out: Kd (Kinetics)), the Kd turned out to be 35.9 µM.

In the case of `CC[C@@H]1NC(=O)[C@H]([C@H](O)[C@H](C)CC=Cc2ccc(C(=O)OCCn3ccnc3)cc2OC(C)C)N(C)C(=O)[C@H](C(C)C)N(C)C(=O)[C@H](CC(C)C)N(C)C(=O)[C@H](CC(C)C)N(C)C(=O)[C@@H](C)NC(=O)[C@H](C)NC(=O)[C@H](CC(C)C)N(C)C(=O)[C@H](C(C)C)NC(=O)[C@H](CC(C)C)N(C)C(=O)CN(C)C1=O` [BG185], in test [1], the dissociation rate constant (koff) amounted to 0.584 s⁻¹, the kon was found to be 2250 M⁻¹ s⁻¹ and the “Max Response” value came out at 14.5 RU. Moreover, the Kd in test [1] (read-out: Kd (Affinity)) is 2.92 µM. Moreover, in test [1] (read-out: Kd (Kinetics)), the Kd is 259 µM.

As to `CC[C@@H]1NC(=O)[C@H]([C@H](O)[C@H](C)CC=Cc2c(OC)cc(C(=O)OCCn3ccnc3)cc2OC)N(C)C(=O)[C@H](C(C)C)N(C)C(=O)[C@H](CC(C)C)N(C)C(=O)[C@H](CC(C)C)N(C)C(=O)[C@@H](C)NC(=O)[C@H](C)NC(=O)[C@H](CC(C)C)N(C)C(=O)[C@H](C(C)C)NC(=O)[C@H](CC(C)C)N(C)C(=O)CN(C)C1=O` [BG186, 2-(1H-imidazol-1-yl)ethyl 4-((4R,5R)-5-((2S,5S,11S,14S,17S,20S,23R,26S,29S,32S)-5-ethyl-11,17,26,29-tetraisobutyl-14,32-diisopropyl-1,7,10,16,20,23,25,28,31-nonamethyl-3,6,9,12,15,18,21,24,27,30,33-undecaoxo-1,4,7,10,13,16,19,22,25,28,31-undecaazacyclotritriacontan-2-yl)-5-hydroxy-4-methylpent-1-en-1-yl)-3,5-dimethoxybenzoate], in test [1], the koff was found to be 0.422 s⁻¹, the kon is 14600 M⁻¹ s⁻¹ and the “Max Response” value was determined as 7.6 RU. The same molecule displayed a Kd in test [1] (Kd (Affinity)) of 4.76 µM. In addition, the dissociation constant Kd in test [1] (Kd (Kinetics)) was found to be 28.9 µM.

As for `CC[C@@H]1NC(=O)[C@H]([C@H](O)[C@H](C)CC=Cc2ccc(C(=O)OCCn3ccnc3)cc2C(F)(F)F)N(C)C(=O)[C@H](C(C)C)N(C)C(=O)[C@H](CC(C)C)N(C)C(=O)[C@H](CC(C)C)N(C)C(=O)[C@@H](C)NC(=O)[C@H](C)NC(=O)[C@H](CC(C)C)N(C)C(=O)[C@H](C(C)C)NC(=O)[C@H](CC(C)C)N(C)C(=O)CN(C)C1=O` [BG190], in test [1], the koff stood at 0.0138 s⁻¹, the kon was determined as 4800 M⁻¹ s⁻¹ and the “Max Response” value is reported as 13.2 RU. Moreover, in test [1] (read-out: Kd (Affinity)), the Kd turned out to be 6.07 µM.

Turning to `C/C=C/C[C@@H](C)[C@@H](O)[C@H]1C(=O)N[C@@H](CC)C(=O)N(C)CC(=O)N(C)[C@@H](CC(C)C)C(=O)N[C@@H](C(C)C)C(=O)N(C)[C@@H](CC(C)C)C(=O)N[C@@H](C)C(=O)N[C@H](C)C(=O)N(C)[C@@H](CC(C)C)C(=O)N(C)[C@@H](CC(C)C)C(=O)N(C)[C@H](C(C)C)C(=O)N1C` [CsH, Cyclosporine H, reference compound], the “transduction enhancement (% infected human stem cells), first donor” value in test [2] is given as “achieves good enhancement but at higher concentrations”. For the same molecule, the “rescue of infection from the antiviral effect of IFN” value in test [3] is “rescue infection from the antiviral effect of IFN”.

For `CC[C@@H]1NC(=O)[C@H]([C@H](O)[C@H](C)C/C=C/CCCn2ccnc2)N(C)C(=O)C(C(C)C)N(C)C(=O)[C@H](CC(C)C)N(C)C(=O)[C@H](CC(C)C)N(C)C(=O)[C@@H](C)NC(=O)[C@H](C)NC(=O)[C@H](CC(C)C)N(C)C(=O)[C@H](C(C)C)NC(=O)[C@H](CC(C)C)N(C)C(=O)CN(C)C1=O` (stereo partly shown) [JW-115, reference compound], the “fold rescue compared to inhibited baseline” value in test [4] came out at 14.2 fold.

Regarding Cyclosporine A (CsA) (peptide), the Max Response in test [5] came to 40 RU. In test [6], the fold rescue of HIV-GFP infection compared to IFN-inhibited baseline, THP-1 cells, compound at 5 µM was found to be 9.9 fold.

With Cyclosporine H (CsH) (peptide), the fold rescue of HIV-GFP infection compared to IFN-inhibited baseline, THP-1 cells, compound at 5 µM in test [6] is 24.6 fold.
